Source: patent publication US20230285504A1, “INHIBITION OF REPERFUSION INJURY WITH A PSD-95 INHIBITOR” (NONO INC., priority 2020, published 2023)
Entries after “also recorded” stand apart in the source; their conditions may differ. No end group written: not given here.

What was measured:
[1] = molecular target: second PDZ domain of PSD-95 protein (Homo sapiens, UniProt P78352); details: read-out: EC50 binding to second PDZ domain of PSD-95; cited from earlier work
[2] = PK dose-separation study of nerinetide and alteplase in macaques; assay type: in vivo, cynomolgus macaques (Macaca fascicularis); details: macaque
Protocol: We conducted further PK studies to probe the necessary dose-separation interval to mitigate degradation. These studies were conducted in cynomolgus macaques (Macaca fascicularis) to maximize their relevance to humans. Nerinetide was given as a 10-minute intravenous infusion at a dose of 2.6 mg/kg. This dosing regimen was neuroprotective in macaques exposed to stroke by LVO (Cook et al., Nature 483, 213-217 (2012)) and was used in both the Phase 2 ENACT trial (Lancet Neurol 11, 942-950 (2012)) and the ESCAPE-NA1 trial (Lancet 395, 878-887 (2020)). We examined the scenarios in which alteplase administration was started simultaneously with the nerinetide infusion start, at the end of the 10-minute nerinetide infusion, or 10 minutes after the end of nerinetide infusion. Alteplase (1 mg/kg) was administered through a separate intravenous line as a 10% bolus, followed by an infusion of the remaining 90% over 1 hour, as per its clinical use.

[3] = molecular target: protein-protein interactions of PSD-95 with N-Methyl-D-Aspartate glutamate receptors (NMDARs); details: read-out: IC50 perturbing PSD-95 interaction with NMDARs; cited from earlier work
[4] = tested on: embolic middle cerebral artery occlusion (eMCAO)
Protocol: Nerinetide (7.6 mg/kg) was administered as an intravenous bolus injection either 30 minutes before, or simultaneously with, the onset of a 60-minute infusion of rt-PA (5.4 mg/kg with a 10% bolus followed by 90% over 60 minutes). […] Experimental timeline. […] Hemispheric Infarct volume measurements 24 hours after eMCAo. […] Percentage of hemispheric brain swelling 24 hours after eMCAo and (D). Neurological scores 24 hours after eMCAo. Treatments were administered intravenously at the times indicated in (A). Bars represent mean±SD, with all individual data points plotted. Significant differences (in B) and (in C) are indicated with an asterisk when compared to the control group/nerinetide alone or with a number sign when compare to the thrombolytic agent (one-way ANOVA post hoc Tukey's correction for multiple comparisons test, *P<0.01 or #P <0.01, respectively) N=12-15 animals/group. Significant differences (in D) are indicated with an asterisk when compared to the control group/nerinetide alone or with a number sign when compare to the thrombolytic agent (Kruskal-Wallis analysis of variance on ranks with a post-hoc Dunn's correction for multiple comparisons test, *P<0.01 or #P<0.01, respectively).
To test this, male Sprague-Dawley rats (10-12 weeks old; 270-310 g; Charles River, Montreal, QC, Canada) were subjected to embolic middle cerebral artery occlusion (eMCAO), produced by the introduction of an autologous blood thrombus into the middle cerebral artery. Reperfusion was achieved by treatment with intravenous alteplase at a total dose of 5.4 mg/kg beginning at 90 minutes after ischemia onset. Alteplase was administered using the human injection protocol in which 10% of the total dose is given as a bolus, with the remainder 90% of the dose being given over a 60-minute infusion. The dose of alteplase was 6 times the human dose, in anticipation that the rat fibrinolytic system may be less sensitive to human recombinant tPA. […] Nerinetide was administered either 30 minutes prior to, or concurrently with, the start of the alteplase administration (FIG. 7A) at a dose of 7.6 mg/kg. […] Infarct volumes, hemispheric swelling and neurological scores were evaluated at 24 hours.

[5] = tested on: transient middle cerebral artery occlusion (tMCAO); experiment: Dose-response study of nerinetide in transient middle cerebral artery occlusion; assay type: in vivo; details: rat tMCAo
Protocol: FIGS. 9A-B: Nerinetide is effective over a dosage range of at least 0.025-25 mg/kg in a rat tMCAo model in (A) reducing infarction size and (B) reducing neurologic deficit.
The cleavage of full-length nerinetide by high dose alteplase was incomplete, raising the possibility that some active drug could still remain to achieve neuroprotection. This was supported in rats by a dose-response study of nerinetide in a model of transient middle cerebral artery occlusion (tMCAO). Nerinetide and lodoxamide was administered to rats intravenously as a bolus injection, 60 minutes after tMCAo. […] Bars in A and represent mean±SD, with all individual data points plotted. […] Vehicle: PBS alone. Scrambled: ADA peptide incapable of binding PSD-95. Doses as low as 0.25 mg/kg produced a significant reduction in infarct volume (P=0.01) and an improvement in neurological function. Doses as low as 0.025 mg/kg were also effective. Doses up to at least 25 mg/kg were also effective with the highest efficacy being at about 15 mg/kg. The observed wide therapeutic range was attributable to nerinetide, and not to the mast cell degranulation inhibitor lodoxamide, which was present in all solutions to avoid potential hypotension due to histamine release.

[6] = Pharmacokinetics of nerinetide in rats with simultaneous alteplase; assay type: in vivo; details: rat
Protocol: A. LC/MS spectrum of nerinetide after incubation with plasmin in PBS. 10 uL aliquots of nerinetide (18 mg/mL) and plasmin (1 mg/mL) were incubated in 500 uL tubes of phosphate-buffered saline at 37 C for 5 min and the reaction stopped by cooling to −80C until tested. The various peaks correspond to the indicated fragments. Insert: Predicted trypsin cleavage sites and actual cleavage sites. (B,C) In-vitro effect of rt-PA on nerinetide content in rat (B) and human (C) plasma. Nerinetide was spiked into the plasma samples at t=0 at a concentration of 65 ug/ml, whereas alteplase (rt-PA) was administered as a 60 min infusion at the indicated concentration (D, E) In-vivo effect of the simultaneous administration of nerinetide and rt-PA on Cmax (D) and AUC (E) in the rat. The nerinetide bolus and alteplase (60 min infusion) were started simultaneously through two separate intravenous lines. Symbols represent mean±SD.
Since the effect of nerinetide in the ESCAPE-NA1 trial was negated by alteplase, we next evaluated the effects of alteplase on pharmacokinetics (PK) of nerinetide in rats. Alteplase was administered at 0.9 mg/kg (human dose) and at 5.4 mg/kg (6 times the human dose) in an infusion that simulated the clinical protocol (10% bolus followed by a 60 min infusion of the remainder). Nerinetide was administered as an intravenous bolus at the start of the alteplase infusion at 7.6 mg/kg.

[7] = alteplase started at the end of the 10-minute nerinetide infusion
[8] = nerinetide 2.6 mg/kg 10-minute iv infusion, alteplase 1 mg/kg started simultaneously
[9] = nerinetide alone 7.6 mg/kg, 60 minutes after eMCAO, 24 hours
[10] = nerinetide at 60 minutes followed by alteplase 30 minutes later, 24 hours
[11] = nerinetide 7.6 mg/kg iv bolus with alteplase 0.9 mg/kg (human dose)
[12] = nerinetide 7.6 mg/kg iv bolus with alteplase 5.4 mg/kg started simultaneously

second PDZ domain of PSD-95 protein, sequence (P78352 160-246 limits assumed): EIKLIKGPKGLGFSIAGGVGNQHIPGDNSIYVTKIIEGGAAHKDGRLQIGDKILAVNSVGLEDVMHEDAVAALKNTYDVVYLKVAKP

Sequence: YGRKKRRQRRRKLSSIESDV [nerinetide]
- EC50 [1]: ~7 nM
- degradation of Cmax or AUC of nerinetide by alteplase ([2]; alteplase 10 minutes after the end of the 10-min nerinetide infusion): eliminated degradation of Cmax or AUC by alteplase to within the margin of measurement error; also recorded: substantially reduces cleavage of nerinetide
- reduction in the AUC of nerinetide [2, 7]: 32.3%
- reduction of the Cmax of nerinetide [2, 7]: 23.1%
- reduction in the AUC of nerinetide [2, 8]: 53.9%
- reduction of the Cmax of nerinetide [2, 8]: 47.4%
- IC50 [3]: 1000 to 8000 nM
- beneficial effect of nerinetide on infarction volume ([4]; nerinetide administered concurrently with alteplase at 60 min after eMCAO): eliminated completely
- infarction volume [4, 9]: 175±40 mm3
- reduction of infarction volume [4, 9]: 59.2%
- infarct volume reduction ([4]; nerinetide at 60 minutes followed by alteplase 30 minutes later): 70%
- hemispheric swelling [4, 10]: reducing hemispheric swelling
- neurological scores [4, 10]: improving neurological scores
- dose of highest efficacy ([5]; 24 hours): about 15 mg/kg
- lowest dose also effective ([5]; 24 hours, doses as low as): 0.025 mg/kg
- upper dose also effective ([5]; 24 hours, doses up to at least): at least 25 mg/kg
- dose producing significant reduction in infarct volume (P=0.01) and improvement in neurological function ([5]; iv bolus with lodoxamide 60 minutes after tMCAo, 24 hours, doses as low as): 0.25 mg/kg
- effective dosage range (reducing infarction size and neurologic deficit) ([5]; iv bolus with lodoxamide 60 minutes after tMCAo, read 24 hours): 0.025-25 mg/kg
- half-life ([6]; plasma, intravenous, 7.6 mg/kg, human equivalent concentrations (FIG. 6D)): 5 to 10 min
- change of AUC of nerinetide [6, 11]: non-significant reduction
- change of Cmax of nerinetide [6, 11]: non-significant reduction
- lowering of mean AUC of nerinetide [6, 12]: 44%
- lowering of mean Cmax of nerinetide [6, 12]: 49.5%
